Species on record: Rattus norvegicus
Test: Open TG-GATES - Regimen: Daily Repeat
Type: toxicity, organism-based, Sprague-Dawley
Design: regimen Daily Repeat, gender Male, age 6 weeks
Conditions: in vivo, po, route gavage; for APTT / Bas / Eos / Fbg / Hb / Ht / Lym / MCH / MCHC / MCV / Mono / Neu / PT / Plat / RBC / Ret / WBC: tissue Blood; for KIDNEY_L / KIDNEY_R / KIDNEY_TOTAL: tissue Kidney; for LIVER: tissue Liver; for A/G / ALP / ALT / AST / BUN / CRE / Ca / Cl / DBIL / GLC / IP / K / LDH / Na / PL / RALB / TBIL / TC / TG / TP / gamma-GTP: tissue Plasma
[1] = 15 mg/kg, 72 h, dose level Middle, time 3 day
[2] = 15 mg/kg, […], dose level Middle, time 7 day
[3] = 15 mg/kg, […], dose level Middle, time 14 day
[4] = 15 mg/kg, […], dose level Middle, time 28 day
[5] = 50 mg/kg, 72 h, dose level High, time 3 day
[6] = 50 mg/kg, […], dose level High, time 7 day
[7] = 50 mg/kg, […], dose level High, time 14 day
[8] = 50 mg/kg, […], dose level High, time 28 day

CC1=C(CC(=O)O)c2cc(F)ccc2/C1=C\c1ccc([S+](C)[O-])cc1 (centres undefined)
TERMINAL_BW [1]: 235.3 g
APTT [1]: 17.2 s
Bas [1]: 0%
Eos [1]: 1%
Fbg [1]: 309 mg/dL
Hb [1]: 14.2 g/dL
Ht [1]: 43%
Lym [1]: 75.8%
MCH [1]: 21.2 pg
MCHC [1]: 33%
MCV [1]: 64.3 fL
Mono [1]: 2.6%
Neu [1]: 20%
PT [1]: 13.7 s
Plat [1]: 120.1 x10_4/uL
RBC [1]: 671.2 x10_4/ul
Ret [1]: 7.1%
WBC [1]: 90 x10_2/uL
KIDNEY_L [1]: 1 g
KIDNEY_R [1]: 1 g
KIDNEY_TOTAL [1]: 2 g
LIVER [1]: 11.3 g
A/G [1]: 0.9
ALP [1]: 1549.6 IU/L
ALT [1]: 44.2 IU/L
AST [1]: 72.4 IU/L
BUN [1]: 15.8 mg/dL
CRE [1]: 0.2 mg/dL
Ca [1]: 11.1 mg/dL
Cl [1]: 106 meq/L
DBIL [1]: 0.012 mg/dL
GLC [1]: 185.2 mg/dL
IP [1]: 7.3 mg/dL
K [1]: 4 meq/L
LDH [1]: 93.8 IU/L
Na [1]: 142.8 meq/L
PL [1]: 159 mg/dL
RALB [1]: 2.7 g/dL
TBIL [1]: 0.018 mg/dL
TC [1]: 85.2 mg/dL
TG [1]: 98.6 mg/dL
TP [1]: 5.6 g/dL
gamma-GTP [1]: 1 IU/L
TERMINAL_BW [2]: 268.9 g
TERMINAL_BW [3]: 338.3 g
TERMINAL_BW [4]: 411.4 g
APTT [2]: 17.1 s
Bas [2]: 0%
Eos [2]: 1%
Fbg [2]: 295.2 mg/dL
Hb [2]: 14.4 g/dL
Ht [2]: 42.6%
Lym [2]: 77.6%
MCH [2]: 21.2 pg
MCHC [2]: 33.8%
MCV [2]: 62.6 fL
Mono [2]: 2.4%
Neu [2]: 18.8%
PT [2]: 13.5 s
Plat [2]: 137.1 x10_4/uL
RBC [2]: 681.2 x10_4/ul
Ret [2]: 6.1%
WBC [2]: 102.7 x10_2/uL
APTT [3]: 18 s
Bas [3]: 0%
Eos [3]: 1%
Fbg [3]: 325.2 mg/dL
Hb [3]: 14.6 g/dL
Ht [3]: 42.9%
Lym [3]: 73.2%
MCH [3]: 20.5 pg
MCHC [3]: 34.1%
MCV [3]: 60 fL
Mono [3]: 2.2%
Neu [3]: 23%
PT [3]: 13.7 s
Plat [3]: 131.8 x10_4/uL
RBC [3]: 715.4 x10_4/ul
Ret [3]: 4.6%
WBC [3]: 104.2 x10_2/uL
APTT [4]: 20.6 s
Bas [4]: 0%
Eos [4]: 0.8%
Fbg [4]: 263.6 mg/dL
Hb [4]: 14.9 g/dL
Ht [4]: 45.8%
Lym [4]: 76%
MCH [4]: 18.9 pg
MCHC [4]: 32.6%
MCV [4]: 58 fL
Mono [4]: 2%
Neu [4]: 20.8%
PT [4]: 12.6 s
Plat [4]: 111.8 x10_4/uL
RBC [4]: 792.6 x10_4/ul
Ret [4]: 3.7%
WBC [4]: 112.4 x10_2/uL
KIDNEY_L [2]: 1.2 g
KIDNEY_R [2]: 1.1 g
KIDNEY_TOTAL [2]: 2.3 g
KIDNEY_L [3]: 1.3 g
KIDNEY_R [3]: 1.2 g
KIDNEY_TOTAL [3]: 2.5 g
KIDNEY_L [4]: 1.4 g
KIDNEY_R [4]: 1.4 g
KIDNEY_TOTAL [4]: 2.8 g
LIVER [2]: 12.6 g
LIVER [3]: 15.2 g
LIVER [4]: 17.1 g
A/G [2]: 0.9
ALP [2]: 1603.8 IU/L
ALT [2]: 41.2 IU/L
AST [2]: 66.8 IU/L
BUN [2]: 17.2 mg/dL
CRE [2]: 0.2 mg/dL
Ca [2]: 11 mg/dL
Cl [2]: 104 meq/L
DBIL [2]: 0.016 mg/dL
GLC [2]: 183 mg/dL
IP [2]: 7.3 mg/dL
K [2]: 4.3 meq/L
LDH [2]: 87.4 IU/L
Na [2]: 141 meq/L
PL [2]: 187.6 mg/dL
RALB [2]: 2.8 g/dL
TBIL [2]: 0.016 mg/dL
TC [2]: 91.6 mg/dL
TG [2]: 171.6 mg/dL
TP [2]: 5.9 g/dL
gamma-GTP [2]: 1 IU/L
A/G [3]: 0.9
ALP [3]: 1475.4 IU/L
ALT [3]: 42.6 IU/L
AST [3]: 65.6 IU/L
BUN [3]: 17.4 mg/dL
CRE [3]: 0.3 mg/dL
Ca [3]: 10.9 mg/dL
Cl [3]: 105.6 meq/L
DBIL [3]: 0.018 mg/dL
GLC [3]: 183 mg/dL
IP [3]: 6.8 mg/dL
K [3]: 3.8 meq/L
LDH [3]: 75.4 IU/L
Na [3]: 143.4 meq/L
PL [3]: 173.4 mg/dL
RALB [3]: 2.8 g/dL
TBIL [3]: 0.042 mg/dL
TC [3]: 81.4 mg/dL
TG [3]: 191 mg/dL
TP [3]: 6 g/dL
gamma-GTP [3]: 1 IU/L
A/G [4]: 0.8
ALP [4]: 1137.2 IU/L
ALT [4]: 35.8 IU/L
AST [4]: 62 IU/L
BUN [4]: 18.2 mg/dL
CRE [4]: 0.3 mg/dL
Ca [4]: 10.7 mg/dL
Cl [4]: 103.8 meq/L
DBIL [4]: 0.008 mg/dL
GLC [4]: 178.4 mg/dL
IP [4]: 6.9 mg/dL
K [4]: 3.8 meq/L
LDH [4]: 64.6 IU/L
Na [4]: 142.8 meq/L
PL [4]: 153.4 mg/dL
RALB [4]: 2.8 g/dL
TBIL [4]: 0.076 mg/dL
TC [4]: 74.8 mg/dL
TG [4]: 162.8 mg/dL
TP [4]: 6.2 g/dL
gamma-GTP [4]: 1 IU/L
TERMINAL_BW [5]: 223.6 g
APTT [5]: 18.5 s
Bas [5]: 0.2%
Eos [5]: 1.2%
Fbg [5]: 396.2 mg/dL
Hb [5]: 13.9 g/dL
Ht [5]: 41.6%
Lym [5]: 71.2%
MCH [5]: 20.7 pg
MCHC [5]: 33.3%
MCV [5]: 62.3 fL
Mono [5]: 3.4%
Neu [5]: 24%
PT [5]: 13.3 s
Plat [5]: 112.6 x10_4/uL
RBC [5]: 668 x10_4/ul
Ret [5]: 6%
WBC [5]: 137.2 x10_2/uL
KIDNEY_L [5]: 1 g
KIDNEY_R [5]: 1 g
KIDNEY_TOTAL [5]: 2 g
LIVER [5]: 11 g
A/G [5]: 0.9
ALP [5]: 1504.6 IU/L
ALT [5]: 38.2 IU/L
AST [5]: 63 IU/L
BUN [5]: 15.6 mg/dL
CRE [5]: 0.2 mg/dL
Ca [5]: 11 mg/dL
Cl [5]: 106.8 meq/L
DBIL [5]: 0.008 mg/dL
GLC [5]: 178.4 mg/dL
IP [5]: 6.5 mg/dL
K [5]: 4.2 meq/L
LDH [5]: 96.4 IU/L
Na [5]: 141.8 meq/L
PL [5]: 164.4 mg/dL
RALB [5]: 2.6 g/dL
TBIL [5]: 0.016 mg/dL
TC [5]: 91.2 mg/dL
TG [5]: 129.8 mg/dL
TP [5]: 5.4 g/dL
gamma-GTP [5]: 1.2 IU/L
TERMINAL_BW [6]: 211.2 g
TERMINAL_BW [7]: 263.8 g
TERMINAL_BW [8]: 295.9 g
APTT [6]: 16.7 s
Bas [6]: 0.6%
Eos [6]: 1.2%
Fbg [6]: 522.6 mg/dL
Hb [6]: 11.5 g/dL
Ht [6]: 35.1%
Lym [6]: 55%
MCH [6]: 20.8 pg
MCHC [6]: 32.8%
MCV [6]: 63.4 fL
Mono [6]: 3.8%
Neu [6]: 38.8%
PT [6]: 13 s
Plat [6]: 252.7 x10_4/uL
RBC [6]: 553.6 x10_4/ul
Ret [6]: 11.8%
WBC [6]: 207.1 x10_2/uL
APTT [7]: 25.1 s
Bas [7]: 0%
Eos [7]: 1.7%
Fbg [7]: 447 mg/dL
Hb [7]: 10.8 g/dL
Ht [7]: 33.6%
Lym [7]: 56%
MCH [7]: 20.6 pg
MCHC [7]: 31.6%
MCV [7]: 65.2 fL
Mono [7]: 4%
Neu [7]: 37%
PT [7]: 13.3 s
Plat [7]: 243.4 x10_4/uL
RBC [7]: 517.7 x10_4/ul
Ret [7]: 16.3%
WBC [7]: 216.8 x10_2/uL
APTT [8]: 18.9 s
Bas [8]: 0%
Eos [8]: 1.7%
Fbg [8]: 577 mg/dL
Hb [8]: 10.2 g/dL
Ht [8]: 34.4%
Lym [8]: 51.7%
MCH [8]: 18.1 pg
MCHC [8]: 29.3%
MCV [8]: 61.7 fL
Mono [8]: 4.7%
Neu [8]: 41%
PT [8]: 11.9 s
Plat [8]: 221.3 x10_4/uL
RBC [8]: 561.3 x10_4/ul
Ret [8]: 16.6%
WBC [8]: 217.4 x10_2/uL
KIDNEY_L [6]: 1 g
KIDNEY_R [6]: 1 g
KIDNEY_TOTAL [6]: 2 g
KIDNEY_L [7]: 1.1 g
KIDNEY_R [7]: 1.1 g
KIDNEY_TOTAL [7]: 2.2 g
KIDNEY_L [8]: 1.3 g
KIDNEY_R [8]: 1.2 g
KIDNEY_TOTAL [8]: 2.5 g
LIVER [6]: 10.6 g
LIVER [7]: 13.4 g
LIVER [8]: 15.2 g
A/G [6]: 0.9
ALP [6]: 1360.6 IU/L
ALT [6]: 24.4 IU/L
AST [6]: 64 IU/L
BUN [6]: 39.8 mg/dL
CRE [6]: 0.3 mg/dL
Ca [6]: 10.6 mg/dL
Cl [6]: 104 meq/L
DBIL [6]: 0.032 mg/dL
GLC [6]: 154.2 mg/dL
IP [6]: 7.5 mg/dL
K [6]: 4.3 meq/L
LDH [6]: 96.8 IU/L
Na [6]: 141 meq/L
PL [6]: 157.6 mg/dL
RALB [6]: 2.4 g/dL
TBIL [6]: 0.066 mg/dL
TC [6]: 78.8 mg/dL
TG [6]: 104.2 mg/dL
TP [6]: 5.1 g/dL
gamma-GTP [6]: 5 IU/L
A/G [7]: 0.9
ALP [7]: 806 IU/L
ALT [7]: 28.7 IU/L
AST [7]: 49.3 IU/L
BUN [7]: 18.3 mg/dL
CRE [7]: 0.3 mg/dL
Ca [7]: 10.5 mg/dL
Cl [7]: 106.3 meq/L
DBIL [7]: 0.0133 mg/dL
GLC [7]: 156.3 mg/dL
IP [7]: 5.3 mg/dL
K [7]: 4.5 meq/L
LDH [7]: 74 IU/L
Na [7]: 141.7 meq/L
PL [7]: 203 mg/dL
RALB [7]: 2.5 g/dL
TBIL [7]: 0.03 mg/dL
TC [7]: 96.7 mg/dL
TG [7]: 326.7 mg/dL
TP [7]: 5.4 g/dL
gamma-GTP [7]: 1.7 IU/L
A/G [8]: 0.8
ALP [8]: 657 IU/L
ALT [8]: 23.3 IU/L
AST [8]: 47.3 IU/L
BUN [8]: 18.3 mg/dL
CRE [8]: 0.3 mg/dL
Ca [8]: 10 mg/dL
Cl [8]: 103 meq/L
DBIL [8]: 0.0067 mg/dL
GLC [8]: 149.3 mg/dL
IP [8]: 7 mg/dL
K [8]: 3.8 meq/L
LDH [8]: 92 IU/L
Na [8]: 141.7 meq/L
PL [8]: 181.7 mg/dL
RALB [8]: 2.3 g/dL
TBIL [8]: 0.06 mg/dL
TC [8]: 88.7 mg/dL
TG [8]: 261.7 mg/dL
TP [8]: 5.1 g/dL
gamma-GTP [8]: 1.7 IU/L
